The subject of test [1] is A549 cells. The experiment in a line: In vitro combination study with Dasatinib on A549 cell. The class given is cell-based. The note with it: 0.05 μM of Dasatinib and 8 μM of Phenformin. As for the experimental part:
(§1) A549, H1975 (CRL5908, ATCC) or U937 cell (CRL1593.2™, ATCC) lines were cultured in RPMI 1640 media (Lifetechnologies, CA) with supplement of 10% FBS and antibiotic-antimycotic (Lifetechnologies, CA). Dasatinib (Combi-Blocks, San Diego, Calif.) is Bcr-Abl-tyrosine kinase inhibitor and Src family tyrosine kinase inhibitor approved for CML treatment. GDC094 (Selleckchem, Houston, Tex.) is a pan-PI3K inhibitor and effective in various cancer cells. H1975 or A549 cells were dissociated from culture plate using 0.5% trypsin-EDTA (Lifetechnologies, CA) and were suspended. U937 cells were spun down using centrifugation. […]
(§2) Among four concentrations of the compounds of present invention, the highest concentration was set to IC80 and the lowest concentration was approximately IC30. […] 100 μl of DMSO was added after removing MTT solution from each well, and were read by VICTOR X3 Multilabel Counter at the wavelength of 550 nm.
(§3) For the analysis of U937 cell viability, 20 μl of Celltiter96® AQueous one solution (MTS, Promega, Madison, Wis.) were added to each well, and plates were incubated at 37° C. and 5% CO2. After 2 hours later, plates read by VICTOR X3 Multilabel Counter at the wavelength of 490 nm. The combination index (CI value) was calculated using Calcusyn (Biosoft, UK).

Test [2] relates to SK-MEL-239 tumor cells. Description: In vivo xenograft model using SK-MEL-239 cell. More on the design: species or system mice. The note with it: Dosing 150/100 mg/kg, oral, twice daily.
Test [3] concerns SK-MEL-239 tumor cells. The experiment in a line: In vivo xenograft model using SK-MEL-239 cell. More on the design: species or system mice. As for the experimental part: The compounds of the present invention were evaluated in vivo using xenograft human cancer model in mice. The compounds of invention were administrated orally or interperitoneal injection. Tumor cell lines were cultured in vitro as monolayer culture. Using female BALB/c nude mice with immune system compromised, each mouse was inoculated subcutaneously at the right flank with tumor cells for tumor development. The treatment was started when the tumor size reaches approximately 100 mm^3
The SK-MEL-239 tumor cell line was maintained in vitro as monolayer in RPMII 640 medium supplemented with 10% heat inactivated fetal bovine serum, 100 U/ml penicillin and 100 μg/ml streptomycin, and L-glutamine (2 mM) at 37° C. in an atmosphere of 5% CO2 in air. The tumor cells were routinely subcultured twice weekly with 0.5% trypsin-EDTA treatment. The cells growing in an exponential growth phase were harvested and counted for tumor cell inoculation.
Female BALB/c nude mice aged 6-8 weeks and weighing approximately 18-22 g were purchased from Vital River. Each mouse was inoculated subcutaneously at the right flank with SK-MEL-239 tumor cells (1×10^7) in 0.1 ml of PBS for tumor development. The treatment was started, when the tumor size reaches approximately 100 mm^3. 100 mg/kg of Phenformin and 15 mg/kg of Vemurafenib were administered via oral gavage twice daily and 100 mg/kg HLPOI (HL176001001) was administered once daily for 21 days. Tumor volumes were measured twice a week in two dimensions using a caliper, and the volume was expressed in mm^3 using the formula: V=0.5×a×b^2, where a and b were the long and short diameters of the tumor, respectively. The T/C value (in percentage) was an indication of antitumor effect. T and C were the mean volumes of the treated and control groups, respectively.

The test system of another test is H1975 cell. Description: In vitro combination study with Dasatinib on H1975 cell. It counts as cell-based. The note with it: 0.2 μM of Dasatinib, 8 μM or 40 μM of Example 1, 40 μM or 200 μM of Example 104. As for the experimental part:
as §1, §2, §3

Test [4] has as its system A549 cells. The experiment in a line: Inhibition of OCR (XF Analyzer). The class given is cell-based. The source says: The electron transfer complex in mitochondria is composed of 5 complexes. The complex I accept electrons from NADH produced from glycolysis and TCA cycle and the electrons move to complex […] and the electron is finally transferred to O2 and water molecule is generated. During the electron transfer, proton gradient is generated and the chemical gradient is a driving source to synthesize ATP at complex V. The mitochondrial inhibition of complex I indirectly assessed by measuring the oxygen consumption rate (OCR) at complex IV. […] The solution outside of cells becomes acidic (lower pH) as lactate is transported to outside of cells. OCR and Extracellular acidification rate (ECAR) are determined by XF Analyzer (Seahorse Biosciences).
A549 cells were purchased from American Type Tissue Culture Collection ([…]) and cultured in RPMI 1640 supplied with 10% fetal bovine serum (FBS) and antibiotic-antimycotic (Lifetech, CA). A549 cells were separated with 0.5% Trypsin-EDTA and 3,000 cells were plated on 1 mg/ml poly-D-lysine (Sigma, P6407) coated XF 96 well […]. A549 cells were allowed to adhere to the wells for 24 hours under the condition of temperature, 37° C. and 5% CO2 The sensor cartridge of XF Analyzer was soaked in 200 Ad of Calibrant solution (Seahorse, MA) in a clear 96-well plate at 37° C. for 24 hours. The compounds of the present invention were diluted with RPMI 1640 without FBS, transferred to A549 cells on XF 96 well plate, and incubated further for 23 hours at 37° C. and 5% CO2. After incubation, the compound solution was exchanged with pre-warmed and pH adjusted (pH7.4) XF assay media (Seahorse) supplied with 15 mM D-glucose (Sigma), 15 mM sodium pyruvate (Lifetechnologies, CA) and 4 mM L-glutamine (Lifetechnologies, CA). The compounds of present invention were prepared in XF Assay media and added to the assay plate. The assay plate was equilibrated in XF Analyzer for 1 hour, and the reading were started by sensor cartridge. The cytotoxicity assay was followed using Cyquant (Lifetechnologies, CA) in order to calibrate the inhibition with cytotoxicity of compounds. The concentrations of the compounds were tested at […] and IC50 value was obtained from the inhibited values. That is, from OCR inhibition values at each concentration of the compound, IC50 was calculated according to Prism's dose response curve fitting.
In Table 1, the levels of OCR IC50 are evaluated by the following.

The test system of a further test is SK-MEL-28 cells. Description: Cytotoxicity in low glucose condition (MTT). The class given is cell-based. The following applies: SK-MEL-28, 0.75 mM glucose, 72 hours, read-out: SK-MEL-28 0.75 mM glucose Cell viability (IC50 ia). An excerpt: The inhibition of oxidative phosphorylation (OXPHOS) is not cytotoxic to cells in normal glucose condition, because it is postulated that normal cells have compensatory mechanism under energy stress conditions such as low glucose. However OXPHOS inhibitors show cytotoxic effect on cells in the glucose deprived condition (BirsoyK, 2014). The glucose deprived condition is observed in tumor microenvironment potentially due to poor angiogenesis. Therefore the OXPHOS inhibitors may show anti-cancer effect on cancer cells in low glucose condition that may depict tumor microenvironment.
The compounds of the present invention were evaluated their cytotoxicity in SK-MEL-28, melanoma with 0.75 mM glucose supplement. The cytotoxic effect is compared with the cytotoxicity caused by phenformin. The cytotoxicity in low glucose condition is correlated with inhibition of oxygen consumption in mitochondria.
SK-MEL-28 (HTB-72) is a melanoma cell line obtained from ATCC (MA) and cultured in RPMI 1640 media (Lifetechnologies, CA) with supplement of 10% FBS and antibiotic-antimycotic (Lifetechnologies, CA). RPMI 1640 (-Glucose) was used to prepare low glucose media and 0.75 mM glucose was supplied with D-(+)-glucose solution from Sigma. SK-MEL-28 cells were separated from culture plate using 0.5% trypsin-EDTA and 5,000 cells were plated in 96-well plate with low glucose media. After incubation at 37° C. for 24 hour, 5% CO2, the cells were treated with the compounds of present invention in FBS-free media for 72 hours. The cytotoxicity was measured by the MTT (AMRESCO, OH) assay. NADH-dependent cellular oxidoreductase reduces MTT to its insoluble […] with purple color. The enzyme depends on cell number or energy state of cells. 10 μl of 5 mg/ml MIT solution was added to each well of the assay plate and skip the well for blank. The plate was incubated at 37° C. and 5% CO2 for 2 hours. The MTT solution was removed from each well and 100 μl of DMSO was added. The plate was read by VICTOR X3 Multilabel Counter at the wavelength of 550 nm. In Table 2, the levels of IC50 are evaluated by the following criteria.

Setting [5] is: Dosing 15 mg/kg, oral, twice daily, Day 28.

As usually defined, the IC50 is the point on the concentration scale where inhibition reaches its midpoint.

Structures can show the parent of a compound that is named as a salt. Where two headings read alike, the source gives them in different places.

As for `[H]/N=C(/N)N/C(=N/[H])NCCc1ccccc1` [Phenformin, phenformin, reference compound], the “synergic effect in combination with Dasatinib” value with A549 cells [1] was “did not show the synergic effect”. Also, in the test on SK-MEL-239 tumor cells [2], the “T/C (Day 28, %)” value is 52.2% and the “Tumor Volume (Day 28, mm^3, a)” value is listed as 1,562 ± 166 mm^3. In addition, the “tumor volume compared to the control group” value in the test on SK-MEL-239 tumor cells [3] (100 mg/kg, Phenformin twice daily, Example 1 once daily) was “significant reduction of tumor volume”. The “tumor volume compared to the single administration of Vemurafenib” value in the test with SK-MEL-239 tumor cells [3] (in combination with 15 mg/kg of Vemurafenib) is recorded as “did not show the significant reduction of tumor volume”.

For `Cl.N=C(N)NC(=N)NCCc1ccc(F)cc1` [Example 104, N-1-(4-fluoro)phenethylbiguanide hydrochloride], the “combination therapy effect with Dasatinib” value in the test with H1975 cell is “low combination therapy effect”.

`CCCS(=O)(=O)Nc1ccc(F)c(C(=O)c2c[nH]c3ncc(-c4ccc(Cl)cc4)cc23)c1F` [Vemurafenib, reference compound]: in the test with SK-MEL-239 tumor cells [3] (setting [5]), the “T/C (Day 28, %)” value amounted to 38.0% and the “Tumor Volume (Day 28, mm^3, a)” value is on record as 1,144 ± 101 mm^3.

Turning to `N=C(N)NC(=N)NCCc1ccc2c(c1)CCC2` [Example 66, N-1-2-(2,3-dihydro-1H-inden-5-yl)ethylbiguanide hydrochloride], the IC50 is 2 to 5 µM in the test on A549 cells [4] (Homo sapiens, A549, 24 h) and below 5 µM with SK-MEL-28 cells (Homo sapiens).

Take `CNC(=N)NC(=N)NCCc1ccc2c(c1)CCCC2` [Example 126, N-1-methyl-N-5-(2-(5,6,7,8-tetrahydronaphthalen-2-yl)ethyl) biguanide hydrochloride]: the half-maximal inhibitory concentration (IC50) in the test on A549 cells [4] (Homo sapiens, A549, 24 h) was above 5 µM; in the test on SK-MEL-28 cells (Homo sapiens) it was below 5 µM.

With `Cc1cc(CNC(=N)NC(=N)N)ccc1Br` [Example 68, N-1-(4-bromo-3-methyl)benzylbiguanide hydrochloride], the concentration for half-maximal inhibition (IC50) lay in the range of 2 to 5 µM in the test with A549 cells [4] (Homo sapiens, A549, 24 h) and 5 to 10 µM in the test with SK-MEL-28 cells (Homo sapiens).

As for `N=C(N)NCCC1CCCC1` [Example 204, 1-(2-cyclopentylethyl) guanide hydrochloride], the half-maximal inhibitory concentration (IC50) with A549 cells [4] (Homo sapiens, A549, 24 h) was 2 to 5 µM; with SK-MEL-28 cells (Homo sapiens) it was above 10 µM.

As for `N=C(N)NC(=N)NCCc1ccc2c(c1)CCCC2` [Example 30, N-1-(2-(5,6,7,8-tetrahydronaphthalen-2-yl)ethyl)biguanide hydrochloride], the IC50 with A549 cells [4] (A549, 24 hrs) was above 5 µM; with SK-MEL-28 cells, below 5 µM.
